Assay results published in US11241442B2, “Methods of use for TRP channel antagonist-based combination cancer therapies” (President and Fellows of Harvard College, priority 2017, dated 2022).

Assays:
Type in all cases: cell-based
MCF-10A acini = assay: [H2O2]i by Hyper-2 in MCF-10A 3D acini
Method: For the measurement of [H2O2]i levels in MCF-10A acini and HCC1569 spheroids, cells were transduced with a lentiviral vector encoding Hyper-2 or Hyper-2 (C199S). The Hyper-2 fluorescence was measured at 37° C. in HEPES-buffered saline (HBS) containing the following (in mM): 150 NaCl, 6 KCl, 1.2 MgSO4, 2 CaCl2, 11.5 glucose, and 25 HEPES (pH adjusted to 7.4 with NaOH). Fluorescence images of the cells were acquired through the Eclipse Ti-E microscope (Nikon) with ORCA-R2 cooled CCD camera (Hamamatsu Photonics) and analyzed with Metafluor image acquisition software (Molecular Devices). The 488:405-nm ratio images were obtained on a pixel-by-pixel basis. 3D images are shown as one section from midstructure. For the measurement of [H2O2]i levels in MCF-10A cells cultured in suspension, cell clumps were dissociated with trypsin and stained with 10 μM peroxy green-1 for 30 min at 37° C. Cells were then subjected to flow cytometric analysis (FACSCalibur; BD Biosciences). ROS levels determined by flow cytometry are reported as mean fluorescence intensity expressed in arbitrary units. Hyper-2 ratio images are representative from two independent experiments and averaged Hyper-2 ratio represents mean±SD from the sum of two independent experiments.

TRPA1 [1] = target: T1, TRPA1 (Homo sapiens, UniProt O75762); assay: AITC-evoked [Ca2+]i rises in TRPA1-enriched MPNST cells; conditions: 10 μM AP-18, 30 μM AITC
T1 construct: endogenous in cells; host or cells: HCC1569 breast cancer cells (2D culture or 3D spheroids; shGFP or shTRPA1 transduced)
T1 sequence (O75762 whole entry): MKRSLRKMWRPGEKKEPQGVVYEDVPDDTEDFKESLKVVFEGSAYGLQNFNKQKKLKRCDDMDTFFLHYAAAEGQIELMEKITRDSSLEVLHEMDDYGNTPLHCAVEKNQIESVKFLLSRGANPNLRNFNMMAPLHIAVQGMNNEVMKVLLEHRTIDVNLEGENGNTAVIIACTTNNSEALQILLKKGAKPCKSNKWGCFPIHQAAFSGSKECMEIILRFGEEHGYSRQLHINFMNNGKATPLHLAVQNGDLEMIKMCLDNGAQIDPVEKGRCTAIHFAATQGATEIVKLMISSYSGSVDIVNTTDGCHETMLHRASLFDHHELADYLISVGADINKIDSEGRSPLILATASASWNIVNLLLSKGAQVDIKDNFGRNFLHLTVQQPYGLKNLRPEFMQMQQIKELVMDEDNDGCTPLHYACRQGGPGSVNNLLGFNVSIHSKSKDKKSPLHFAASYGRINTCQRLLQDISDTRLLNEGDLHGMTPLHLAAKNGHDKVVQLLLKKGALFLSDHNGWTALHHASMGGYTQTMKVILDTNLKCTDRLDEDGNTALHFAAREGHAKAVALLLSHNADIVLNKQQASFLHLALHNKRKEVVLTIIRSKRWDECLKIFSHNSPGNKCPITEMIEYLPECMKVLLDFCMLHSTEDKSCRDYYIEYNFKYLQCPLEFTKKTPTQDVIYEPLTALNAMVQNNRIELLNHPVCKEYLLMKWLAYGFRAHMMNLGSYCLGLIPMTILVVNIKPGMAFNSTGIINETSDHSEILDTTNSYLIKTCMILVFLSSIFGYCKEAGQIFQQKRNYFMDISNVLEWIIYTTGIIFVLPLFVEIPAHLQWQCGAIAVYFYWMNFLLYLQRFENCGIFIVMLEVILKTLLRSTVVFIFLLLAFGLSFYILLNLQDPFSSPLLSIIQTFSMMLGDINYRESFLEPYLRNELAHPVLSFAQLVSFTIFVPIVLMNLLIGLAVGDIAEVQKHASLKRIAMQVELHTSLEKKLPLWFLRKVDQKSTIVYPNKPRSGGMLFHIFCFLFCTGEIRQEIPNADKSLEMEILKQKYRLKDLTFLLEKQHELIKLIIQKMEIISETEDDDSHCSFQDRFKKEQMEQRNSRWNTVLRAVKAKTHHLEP
Method: (§1) For the measurement of [Ca^2+]i levels in cells cultured in 2D or 3D (in Matrigel), cells were stained with 3.5 μM fura-2-AM (Life Technology) in the presence of 2.5 mM probenecid (Sigma) and 0.02% Pluronic F-127 (Sigma) for 45 min at 37° C. The fura-2 fluorescence was measured in HBS solution containing 1.25 mM probenecid at 37° C. Fluorescence images of the cells were acquired through the Eclipse Ti-E microscope with ORCA-R2 cooled CCD camera and analyzed with Metafluor. The 340:380-nm ratio images were obtained on a pixel-by-pixel basis and were converted to Ca^2+ concentrations by in vivo calibration using 5 μM ionomycin as described previously (Nishida et al., Biochem. Biophys. Res. Commun., 262:350-354, 1999). 3D images are shown as one section from midstructure. For the measurement of [Ca^2+]i levels in cells cultured in suspension, cell clumps were dissociated with trypsin and [Ca^2+]i levels were determined by using Fluo-4 NW Calcium Assay Kit (Molecular Probes). Cells were stained with Fluo-4 according to the manufacturer's instructions and subjected to flow cytometric analysis (FACSCalibur) using HBS as sheath fluid. [Ca^2+]i levels determined by flow cytometry are reported as mean fluorescence intensity expressed in arbitrary units. […]

TRPA1 [2] = target: T1, TRPA1; assay: AITC-evoked [Ca2+]i rises in TRPA1-enriched NSCLC cells; conditions: 10 μM AP-18, 30 μM AITC
T1 sequence (O75762 682-1119 limits assumed): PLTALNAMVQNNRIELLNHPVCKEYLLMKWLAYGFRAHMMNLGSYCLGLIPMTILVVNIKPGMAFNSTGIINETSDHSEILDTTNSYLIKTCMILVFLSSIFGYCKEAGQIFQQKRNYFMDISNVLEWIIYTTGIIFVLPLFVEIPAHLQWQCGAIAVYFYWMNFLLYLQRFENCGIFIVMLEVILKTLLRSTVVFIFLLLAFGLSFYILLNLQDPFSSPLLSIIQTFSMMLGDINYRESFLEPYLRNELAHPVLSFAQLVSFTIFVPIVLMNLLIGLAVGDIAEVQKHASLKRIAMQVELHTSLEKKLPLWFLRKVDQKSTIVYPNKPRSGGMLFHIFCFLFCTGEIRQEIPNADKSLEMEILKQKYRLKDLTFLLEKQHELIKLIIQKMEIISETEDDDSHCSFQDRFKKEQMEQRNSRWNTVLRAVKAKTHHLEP
Method: as §1

TRPA1 [3] = assay: [Ca2+]i by fura-2 in TRPA1-expressing MCF-10A 3D acini; conditions: inner ECM-deprived region of MCF-10A acini
Method: For the measurement of [Ca^2+]i levels in cells cultured in 2D or 3D (in Matrigel), cells were stained with 3.5 μM fura-2-AM (Life Technology) in the presence of 2.5 mM probenecid (Sigma) and 0.02% Pluronic F-127 (Sigma) for 45 min at 37° C. The fura-2 fluorescence was measured in HBS solution containing 1.25 mM probenecid at 37° C. Fluorescence images of the cells were acquired through the Eclipse Ti-E microscope with ORCA-R2 cooled CCD camera and analyzed with Metafluor. The 340:380-nm ratio images were obtained on a pixel-by-pixel basis and were converted to Ca^2+ concentrations by in vivo calibration using 5 μM ionomycin as described previously (Nishida et al., Biochem. Biophys. Res. Commun., 262:350-354, 1999). 3D images are shown as one section from midstructure. For the measurement of [Ca^2+]i levels in cells cultured in suspension, cell clumps were dissociated with trypsin and [Ca^2+]i levels were determined by using Fluo-4 NW Calcium Assay Kit (Molecular Probes). Cells were stained with Fluo-4 according to the manufacturer's instructions and subjected to flow cytometric analysis (FACSCalibur) using HBS as sheath fluid. [Ca^2+]i levels determined by flow cytometry are reported as mean fluorescence intensity expressed in arbitrary units. Time courses of [Ca^2+]i rises in 2D culture are representative of three independent experiments and averaged Δ[Ca^2+]i represents mean±SEM from the sum of three independent experiments. Fura-2 ratio images in 3D culture are representative of two independent experiments and averaged [Ca^2+]i in 3D culture represents mean±SEM from the sum of two independent experiments.

MPNST cells = assay: H2O2- and carboplatin-induced cytotoxicity in MPNST cells; conditions: TRPA1 expression-dependent
Method: For the measurements of live cell number and cell death under treatment with H2O2, diamide, or chemotherapies, cells were cultured on 96-well plates in the presence or absence of these drugs for indicated times and stained with 5 μM bisBenzimide H 33342 trihydrochloride (Hoechst; Sigma) and 5 μM propidium iodide (PI; Sigma) for 1 h at 37° C. Hoechst- and/or PI-positive cells were counted using a laser scanning cytometer, Acumen Cellista (TTPLabTech). Apoptotic cells induced by H2O2 treatment were measured by staining with Annexin V-Alexa Fluor® 488 conjugate (Life Technologies) and PI in Ca^2+-containing solution (10 mM HEPES pH 7.4, 140 mM NaCl; 2.5 mM CaCl2), followed by flow cytometric measurement of fluorescence using a FACSCalibur. Flow cytometry plots are representative of three independent experiments. […] Viable cells were counted using the Countless Automated Cell Counters (Thermo Fisher Scientific). […] Hoechst- and/or PI-positive areas were measured using Acumen Cellista. Apoptotic cells induced by detachment were measured by staining with 5 μM Hoechst and 5 μM of CellEvent™ Caspase-3/7 Green Detection Reagent (Thermo Fisher Scientific) for 1 h at 37° C. without enzymatic dissociation of cell clumps. Hoechst- and/or CellEvent™ Caspase-3/7 Green Detection Reagent-positive areas were measured using Acumen Cellista. […]

Substance: AP-18
- increase in [H2O2]i (Hyper-2) in inner ECM-deprived cells (MCF-10A acini): unaffected
- inhibition of AITC-induced [Ca2+]i rises (TRPA1 [1]): abolished
- inhibition of AITC-induced [Ca2+]i rises (TRPA1 [2]): abolished
- TRPA1- or E681K-induced [Ca2+]i rises (TRPA1 [3]): abolished
- sensitization to carboplatin-induced cytotoxicity (MPNST cells; 10 μM AP-18, carboplatin 72 h): sensitized
- sensitization to H2O2-induced cytotoxicity (MPNST cells): sensitized
